Results reported in patent publication US20220213092A1, “BICYCLIC PYRAZOLE BRUTON'S TYROSINE KINASE INHIBITORS” (AbbVie Inc., priority 2020, published 2022).

Columns and labels:
[1] = molecular target: T1, Full length BTK enzyme (human BTK residues 2-659) (Homo sapiens, UniProt Q06187); experiment: BTK MSA with full length BTK enzyme, used for Examples 50, 51, 62 and 63; format: biochemical; conditions: Examples 50, 51, 62 and 63: 1 mM ATP, 0.6 nM full length BTK enzyme, 3 hours at room temperature
T1 construct: 6His (N); Flag (N); TEV cleavage site (N); Serine (single linker residue before BTK residue 2) (N); made in house; host or cells: baculovirus (pFastBac vector)
T1 sequence (Q06187 2-659): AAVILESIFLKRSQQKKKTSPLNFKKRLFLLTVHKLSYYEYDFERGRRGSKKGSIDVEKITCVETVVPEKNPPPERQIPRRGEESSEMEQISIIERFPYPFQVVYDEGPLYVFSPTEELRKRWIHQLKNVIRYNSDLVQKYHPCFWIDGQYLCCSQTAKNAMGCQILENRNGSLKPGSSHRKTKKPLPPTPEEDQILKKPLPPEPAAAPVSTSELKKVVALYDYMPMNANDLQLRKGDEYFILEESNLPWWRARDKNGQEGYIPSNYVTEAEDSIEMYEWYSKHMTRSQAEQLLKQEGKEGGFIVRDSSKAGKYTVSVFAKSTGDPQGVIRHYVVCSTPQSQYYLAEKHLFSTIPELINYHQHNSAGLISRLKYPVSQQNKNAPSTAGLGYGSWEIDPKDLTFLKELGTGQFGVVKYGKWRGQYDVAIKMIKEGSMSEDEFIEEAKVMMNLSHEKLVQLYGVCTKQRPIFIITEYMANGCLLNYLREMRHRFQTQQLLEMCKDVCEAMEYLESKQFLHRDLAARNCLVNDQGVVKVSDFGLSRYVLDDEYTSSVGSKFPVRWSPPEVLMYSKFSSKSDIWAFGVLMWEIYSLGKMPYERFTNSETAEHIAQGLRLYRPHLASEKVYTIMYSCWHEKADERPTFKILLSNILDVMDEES
Experimental: Kinase activities for Examples 50, 51, 62 and 63 were measured in vitro using the following electrophoretic mobility shift assay (MSA). The kinase reactions were assembled in a total volume of 20 μL in 384 well plates. To each well, 20 nL test compound, or control, in 100% dimethyl sulfoxide was spotted using Echo®, a liquid dispensing instrument (Labcyte, Indianapolis, Ind.). To each well was added: 12 μL of 1.67× Full length BTK enzyme in Master Buffer (Master Buffer components: 20 mM HEPES pH 7.4, 10 mM MgCl2, 1 mM DTT, 0.1 mM sodium orthovanadate, 10 mM beta-glycerophosphate, and 0.0075% w/v Triton x-100). Full length BTK enzyme was 6His-Flag-(TEV)-S[BTK(hu) (2-659)]*BEV, pFastBac*. [Note: this is a description of the exact amino acid sequence of the expressed BTK construct from N- to C-terminus: 6Histidines, Flag tag sequence, TEV cleavage site, Serine, human BTK residues 2-659; and BEV=expressed in baculovirus, pFastBac is the expression vector used].
Enzyme and compound/inhibitor were optionally pre-incubated. To each well was added: 8 μL of 2.5×ATP and substrate in 1× Master Buffer (1× Master Buffer as described above). The plate was incubated at room temperature for 3 hours. The reaction was terminated by adding 30 μL of 1.67× Stop Buffer (Stop Buffer components 10 mM EDTA in water), to each well. The final reaction mixture was as follows: 20 mM HEPES, pH 7.4; 0.0075% Triton X-100; 1 mM DTT; 10 mM MgCl2; 0.1 mM sodium orthovanadate; 10 mM beta-glycerophosphate; 0.1% dimethyl sulfoxide (from compound); 1 mM ATP; 1 μM (OG488-SEQ ID NO. 2-NH2) peptide substrate; and 0.6 nM BTK enzyme. […] The kinase activity for the kinases in Table 3 were measured at 3 hours incubation time, except that in the case of MAP2K1 and MAP2K2 assay, pre-activation of ERK was done for 30 min with 6 μM of ATP, and then the detection of activated ERK in the presence of compounds was done after 60 minutes of incubation.
The terminated reactions were analyzed using a 12 channel LABCHIP® 3000 microfluidic detection instrument (available from Caliper Life Sciences, Waltham, Mass.). […] As substrate and product peptides were separated, two peaks of fluorescence were observed. Change in the relative fluorescence intensity of the substrate and product peaks was the parameter measured, reflecting enzyme activity. […] Capillary electrophoregrams (RDA acquisition files) were analyzed using HTS Well Analyzer software (available from Caliper Life Sciences, Waltham, Mass.).
Activity in each sample was determined as the product to sum ratio (PSR): P/(S+P), where P was the peak height of the product peptide and S was the peak height of the substrate peptide. For each compound, enzyme activity was measured at various concentrations (12 concentrations of compound spaced by 3× dilution intervals). […]

[2] = molecular target: T2, Phosphorylation of Y223 of BTK (Homo sapiens, UniProt Q06187); experiment: Whole blood compound screening, phosphorylation of Y223 site of BTK (MSD assay); format: cell-based; conditions: healthy human whole blood, 2 hours at 37° C., 3 separate donors; read-out: WB BTK-pY223 EC50
T2 construct: host or cells: healthy human whole blood, 3 donors
T2 sequence (Q06187 whole entry): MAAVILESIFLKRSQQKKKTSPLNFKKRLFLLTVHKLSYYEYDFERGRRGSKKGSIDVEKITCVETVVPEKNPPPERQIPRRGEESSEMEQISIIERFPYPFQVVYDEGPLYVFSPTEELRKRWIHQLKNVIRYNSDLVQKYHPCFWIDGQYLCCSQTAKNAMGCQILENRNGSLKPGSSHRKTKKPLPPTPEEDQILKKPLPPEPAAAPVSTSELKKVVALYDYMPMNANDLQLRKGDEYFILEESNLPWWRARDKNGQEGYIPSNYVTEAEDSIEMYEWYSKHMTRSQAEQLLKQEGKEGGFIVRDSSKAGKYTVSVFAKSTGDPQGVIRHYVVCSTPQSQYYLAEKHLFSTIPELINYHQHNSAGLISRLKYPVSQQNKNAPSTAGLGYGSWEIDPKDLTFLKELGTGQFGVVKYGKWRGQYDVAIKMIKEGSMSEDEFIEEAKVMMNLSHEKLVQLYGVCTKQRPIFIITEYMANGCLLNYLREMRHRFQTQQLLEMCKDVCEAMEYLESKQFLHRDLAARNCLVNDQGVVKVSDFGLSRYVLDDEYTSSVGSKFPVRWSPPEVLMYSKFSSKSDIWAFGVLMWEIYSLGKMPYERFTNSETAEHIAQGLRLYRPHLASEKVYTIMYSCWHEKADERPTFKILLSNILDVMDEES
Procedure, shortened: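 Heparinized human whole blood from 3 donors treated 2 h at 37 °C with compounds (8 points, top 10 μM, 1:4 dilution, 0.2% DMSO), then lysed. BTK pY223 quantified by MSD sandwich immunoassay (anti-BTK capture, anti-pY223 detection); EC50 from concentration response.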

IC50 [1] [µM] | EC50 [2] [µM] | Compound
0.0386 |  | CCO/C=C/C(=O)N1CCN([C@@H]2CCNc3c2nn(-c2ccc(Oc4ccccc4)cc2)c3C(N)=O)CC1 [Example 50, (7R)-7-{4-[(2E)-3-ethoxyprop-2-enoyl]piperazin-1-yl}-2-(4-phenoxyphenyl)-4,5,6,7-tetrahydro-2H-pyrazolo[4,3-b]pyridine-3-carboxamide]
0.507 |  | COC(=O)/C=C/C(=O)N1CCN(C2CCNc3c2nn(-c2ccc(Oc4ccccc4)cc2)c3C(N)=O)CC1 (stereo not drawn) [Example 51, methyl (2E)-4-{4-[3-carbamoyl-2-(4-phenoxyphenyl)-4,5,6,7-tetrahydro-2H-pyrazolo[4,3-b]pyridin-7-yl]piperazin-1-yl}-4-oxobut-2-enoate]
0.0062 | 0.00775 | C=CC(=O)N1CC(N2CCNc3c2nn(-c2ccc(Oc4cccc(F)c4)cc2)c3C(N)=O)C1 [Example 62, 2-[4-(3-fluorophenoxy)phenyl]-7-[1-(prop-2-enoyl)azetidin-3-yl]-4,5,6,7-tetrahydro-2H-pyrazolo[3,4-b]pyrazine-3-carboxamide]
0.0203 | 0.0194 | C=CC(=O)N1CC(N2CCNc3c2nn(-c2ccc(Oc4ccc(F)c(F)c4)cc2)c3C(N)=O)C1 [Example 63, 2-[4-(3,4-difluorophenoxy)phenyl]-7-[1-(prop-2-enoyl)azetidin-3-yl]-4,5,6,7-tetrahydro-2H-pyrazolo[3,4-b]pyrazine-3-carboxamide]
